Test results reported in patent US10028971B2, “Compositions and methods for treating psychiatric disorders” (GOSFORTH CENTRE (HOLDINGS) PTY LTD., priority 2008, dated 2018).
Structures can show the parent of a compound that is named as a salt. Where two headings read alike, the source gives them in different places.

Assays:
[1] = system: mood stabilisation or epileptic symptoms or events; conditions: cited from earlier work
adults with ADHD = conditions: person
Procedure: In the clinical setting a number of adults with ADHD experienced a combination therapy of stimulant medication (dexamphetamine) in combination with sodium valproate (VPA). The initial dosages used were from 15 to 70 mg/day of dexamphetamine and from 100 to 700 mg/day of VPA (Epilim) (=approximately 2 to 10 mg/kg/day).
The determination of the dose for the dexamphetamine was undertaken in a clinical sensitive open label manner. The dose was titrated upwards dependent on the clinical response and the freedom from side-effects. The dose range was between 15 and 70 mg a day. The frequency of the dosing also varied dependent upon the clinical response. The usual dose interval was between two to four hours. This dosing adjustment took place prior to the commencement of the sodium valproate. The sodium valproate medication was initiated once a day at 50 mg tablet or elixir and titrated upwards dependent on response, but not more than one increase every three days. The dose was given as a once or twice a day regime. During the titration phase, if clinically possible, no other adjustments to the pharmacotherapy were undertaken.

[2] = system: individuals with developmental dyspraxia / poor coordination; assay: Treatment of developmental dyspraxia, clinical observation; assay type: in vivo, human; conditions: person, ADHD; dexamphetamine 25 mg daily augmented with atomexetine 60 mg and sodium valproate 150 mg
Text: Many of the individuals treated at this clinic, with a diagnosis of ADHD and/or pervasive development disorder such Asperger's Syndrome or autism also present with symptoms consistent with a diagnosis of a developmental coordination disorder. They are often described as ‘unco’ (unco-ordinated) by their peers and experience victimization, poor self-esteem and frustration as a consequence of their poor coordination. […] Individuals have described a sense of having more time to coordinate movements and to understand and integrate their own activity appropriately within a team sport such as soccer, which has previously eluded them. Individuals have felt frustration at being able to practise repeatedly an activity or skill only to be unable to put it into practice when required, within the play of a match. It is proposed that individuals were previously unable to process and plan their own coordination but remain aware of the general activity in which they were participating.

[3] = usual minimum anti-convulsant dose per day

SMILES | Minimum Dose/day effective for mood stabilisation or treatment of epileptic symptoms or events [1, 3] | further results
CCC1(c2ccc(N)cc2)CCC(=O)NC1=O (stereo not shown) [Aminoglutethimide] | 125 mg | 
CCC1(c2ccccc2)C(=O)NC(=O)NC1=O.CNC(C)CC1CCCCC1 [Barbexaclone] | 200 mg in divided doses | 
CCC[C@@H]1CC(=O)N([C@@H](CC)C(N)=O)C1 [Brivaracetam] | 100 mg | 
NC(=O)N1c2ccccc2C=Cc2ccccc21 [Carbamazepine] | 400 mg | clinical outcome (case), compared with oxycarbamazepine (adults with ADHD; switched to carbamazepine): less effective; typical dose for treating epileptic seizures ([1]; in vivo): 400 to 800 mg/day
CN1C(=O)CC(=O)N(c2ccccc2)c2cc(Cl)ccc21 [Clobazam] |  | Minimum Dose/day effective for mood stabilisation or treatment of epileptic symptoms or events ([1]; usual minimum anti-convulsant dose): 5 mg/kg daily
O=C1CN=C(c2ccccc2Cl)c2cc([N+](=O)[O-])ccc2N1 [Clonazepam] | 1 mg | 
CCN1C(=O)OC(C)(C)C1=O [Ethadione] | 1000 mg | 
CCC1(C)CC(=O)NC1=O (stereo not shown) [Ethosuximide] | 1000 mg | 
CCN1C(=O)NC(c2ccccc2)C1=O (stereo not shown) [Ethotoin] | 1000 mg | 
NC(=O)OCC(COC(N)=O)c1ccccc1 [Felbamate] | 1200 mg | 
O=C1NC(c2ccccc2)(c2ccccc2)C(=O)N1COP(=O)(O)O [Fosphenytoin Sodium] | 10 mg/kg | 
NCC1(CC(=O)O)CCCCC1 [Gabapentin, 2-[1-(aminomethyl)cyclohexyl]acetic acid] | 900 mg | 
COC[C@@H](NC(C)=O)C(=O)NCc1ccccc1 [Lacosamide] | 200 mg | 
Nc1nnc(-c2cccc(Cl)c2Cl)c(N)n1 [Lamotrigine, 3,5-diamino-6-(2,3-dichlorophenyl)-1,2,4-triazine] | 100 mg | 
CC[C@@H](C(N)=O)N1CCCC1=O [Levetiracetam] | 1000 mg | 
COC1=CC(=O)OC1C(O)c1ccccc1Cl (stereo not shown) [Losigamone] | 1500 mg | 
CCC1(c2ccccc2)NC(=O)N(C)C1=O (stereo not shown) [Mephenytoin] | 200 mg | 

SMILES | Minimum Dose/day effective for mood stabilisation or treatment of epileptic symptoms or events [1, 3] | further results
CCC1(c2ccccc2)NC(=O)N(C)C1=O (stereo not shown) [Methoin] | 1000 mg | 
CN1C(=O)CC(C)(c2ccccc2)C1=O (stereo not shown) [Methsuximide] | 300 mg | 
NC(=O)N1c2ccccc2CC(=O)c2ccccc21 [Oxcarbazepine] | 600 mg | clinical outcome (case) (adults with ADHD; ADHD, 37.5 mg oxycarbamazepine added to dexamphetamine 40 mg and 'sodium to operate' 400 mg daily): significant improvement in their cognitive functioning; clinical outcome (case) (adults with ADHD; oxycarbamazepine dose increased to 75 mg): improved again
CCC1(C)OC(=O)N(C)C1=O (stereo not shown) [Paramethadione] | 300 mg | 
N#Cc1ccccc1-c1cc(-c2ccccn2)cn(-c2ccccc2)c1=O [Perampanel] | 2 mg | 
NC(=O)NC(=O)Cc1ccccc1 [Phenacemide] | 500 mg | 
CCC(C(=O)NC(N)=O)c1ccccc1 (stereo not shown) [Pheneturide] | 600 mg | 
CN1C(=O)CC(c2ccccc2)C1=O (stereo not shown) [Phensuximide] | 1000 mg | 
CC(C)C[C@H](CN)CC(=O)O [Pregabalin, (S)-3-(aminomethyl)-5-methylhexanoic acid] | 300 mg | 
CCC1(c2ccccc2)C(=O)NCNC1=O [Primidone] | 750 mg | 
NS(=O)(=O)c1ccc(N2CCCCS2(=O)=O)cc1 [Sultiame] | 200 mg | 
Cc1ccsc1C(=CCCN1CCC[C@@H](C(=O)O)C1)c1sccc1C [Tiagabine Hydrochloride] | 30 mg | 
CN1C(=O)OC(C)(C)C1=O [Trimethadione] | 900 mg | 
C=CC(N)CCC(=O)O (stereo not shown) [Vigabatrin] | 1000 mg | 
NS(=O)(=O)Cc1noc2ccccc12 [Zonisamide] | 200 mg | 
CNCC[C@@H](Oc1ccccc1C)c1ccccc1 [atomexetine, (3R)—N-methyl-3-(2-methylphenoxy)-3-phenyl-propan-1-amine] |  | clinical outcome (case) [2]: Significant improvement in psychosocial functioning
